Assay results from ChEMBL document CHEMBL1136313, “Biological evaluation of sphingomyelin analogues as inhibitors of sphingomyelinase” (Bioorg Med Chem Lett, 2003).

biological target: T1, Sphingomyelin phosphodiesterase 2 (Rattus norvegicus, UniProt Q9ET64); experiment: Inhibitory activity against N-SMase (neutral magnesium- dependent-sphingomyelinase) using rat brain microsomes
T1 sequence (Q9ET64 whole entry): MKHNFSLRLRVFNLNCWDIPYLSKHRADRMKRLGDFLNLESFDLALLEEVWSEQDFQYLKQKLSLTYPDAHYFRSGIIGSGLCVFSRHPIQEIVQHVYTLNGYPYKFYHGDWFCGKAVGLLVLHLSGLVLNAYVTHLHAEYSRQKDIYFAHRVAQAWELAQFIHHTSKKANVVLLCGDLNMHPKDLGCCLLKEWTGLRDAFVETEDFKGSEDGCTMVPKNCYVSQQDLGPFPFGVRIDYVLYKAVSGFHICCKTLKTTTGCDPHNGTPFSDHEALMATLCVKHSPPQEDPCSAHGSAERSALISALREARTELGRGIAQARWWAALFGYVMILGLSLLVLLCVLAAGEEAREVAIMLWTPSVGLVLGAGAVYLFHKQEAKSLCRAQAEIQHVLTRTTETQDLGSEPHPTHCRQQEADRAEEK

IC50 [µM]	Compound
6.6	CCCCCCCCCCCCCCC/C=C/[C@@H](O)[C@H](COC(=O)NCc1ccncc1)NC(=O)C(C)(C)C
> 100	CCCCCCCCCCCCCCC[C@@H](O)[C@H](COC(=O)NCc1ccncc1)NC(=O)C(C)(C)C
2.9	CCCCCCCCCCCCC/C=C/[C@@H](O)[C@H](CNC(=O)NCc1ccncc1)NC(=O)C(C)(C)C
6.8	CCCCCCCCCC/C=C/[C@@H](O)[C@H](COC(=O)NCc1ccncc1)NC(=O)C(C)(C)C
> 100	CCCCCCCCCCCC[C@@H](O)[C@H](COC(=O)NCc1ccncc1)NC(=O)C(C)(C)C
21	CCCCCCCCCCCCC/C=C/[C@@H](O)[C@H](COC(=O)N(O)Cc1ccncc1)NC(=O)C(C)(C)C
2.8	CCCCCCCCCCCCC/C=C/[C@@H](O)[C@H](COC(=O)NCc1ccncc1)NC(=O)C(C)(C)C
58	CCCCCCCCCCCCC/C=C/[C@@H](O)[C@H](CNC(=O)OCc1ccncc1)NC(=O)C(C)(C)C
45	CCCCCCCCCCCCC/C=C/[C@@H](O)[C@H](CNC(=S)NCc1ccncc1)NC(=O)C(C)(C)C
